From US11629138B2, “Microbiocidal picolinamide derivatives” (Syngenta Participations AG, priority 2017, dated 2023)

How the values were obtained:
[1] = tested on: Mycosphaerella arachidis (Cercospora arachidicola); experiment: Mycosphaerella arachidis (Cercospora arachidicola) / liquid culture (early leaf spot); format: cell-based; conditions: 200 ppm in the formulation, PDB broth, 24° C., photometric, 4-5 days after application, vs untreated control, read-out: disease control (inhibition of growth)
Method: Mycosphaerella arachidis (Cercospora arachidicola)/Liquid Culture (Early Leaf Soot) Conidia of the fungus from cryogenic storage are directly mixed into nutrient broth (PDB potato dextrose broth). After placing a (DMSO) solution of test compound into a microtiter plate (96-well format), the nutrient broth containing the fungal spores is added. The test plates are incubated at 24° C. and the inhibition of growth is determined photometrically 4-5 days after application.

[2] = tested on: Puccinia recondita f. so. tritici; experiment: Puccinia recondita f. sp. tritici / wheat / leaf disc preventative (brown rust); format: in vivo; conditions: foliar, 200 ppm in the formulation, wheat leaf segments cv. Kanzler, 7-9 days after application, vs untreated control, read-out: disease control
Method: Puccinia recondita f. so. tritici/Wheat/Leaf Disc Preventative (Brown Rust)
Wheat leaf segments cv. Kanzler are placed on agar in multiwell plates (24-well format) and sprayed with the formulated test compound diluted in water. The leaf disks are inoculated with a spore suspension of the fungus 1 day after application. The inoculated leaf segments are incubated at 19° C. and 75% rh under a light regime of 12 h light/12 h darkness in a climate cabinet and the activity of a compound is assessed as percent disease control compared to untreated when an appropriate level of disease damage appears in untreated check leaf segments (7-9 days after application).

[3] = tested on: Mycosphaerella graminicola (Septoria tritici); experiment: Mycosphaerella graminicola (Septoria tritici) / liquid culture (Septoria blotch); format: cell-based; conditions: Zymoseptoria tritici; 200 ppm in the formulation; PDB broth, 24° C., photometric, 4 to 5 days after application; vs untreated control; read-out: disease control (inhibition of growth)
Method: Mycosphaerella graminicola (Septoria tritici)/Liquid Culture (Septoria Blotch) Conidia of the fungus from cryogenic storage are directly mixed into nutrient broth (PDB potato dextrose broth). After placing a (DMSO) solution of test compound into a microtiter plate (96-well format), the nutrient broth containing the fungal spores is added. The test plates are incubated at 24° C. and the inhibition of growth is determined photometrically 4 to 5 days after application.

[4] = tested on: Monographella nivalis (Microdochium nivale); experiment: Monographella nivalis (Microdochium nivale) / liquid culture (foot rot cereals); format: cell-based; conditions: 200 ppm in the formulation, PDB broth, 24° C., photometric, 4-5 days after application, vs untreated control, read-out: disease control (inhibition of growth)
Method: Monographella nivalis (Microdochium nivale)/Liquid Culture (Foot Rot Cereals) Conidia of the fungus from cryogenic storage are directly mixed into nutrient broth (PDB potato dextrose broth). After placing a (DMSO) solution of test compound into a microtiter plate (96-well format), the nutrient broth containing the fungal spores is added. The test plates are incubated at 24° C. and the inhibition of growth is determined photometrically 4-5 days after application.

[5] = tested on: Glomerella lagenarium (Colletotrichum lagenarium); experiment: Glomerella lagenarium (Colletotrichum lagenarium) / liquid culture (anthracnose); format: cell-based; conditions: Colletotrichum orbiculare; 200 ppm in the formulation; PDB broth, 24° C., photometric, 3 to 4 days after application; vs untreated control; read-out: disease control (inhibition of growth)
Method: Glomerella lagenarium (Colletotrichum lagenarium)/Liquid Culture (Anthracnose) Conidia of the fungus from cryogenic storage are directly mixed into nutrient broth (PDB potato dextrose broth). After placing a (DMSO) solution of test compound into a microtiter plate (96-well format), the nutrient broth containing the fungal spores is added. The test plates are incubated at 24° C. and the inhibition of growth is measured photometrically 3 to 4 days after application.

[6] = tested on: Botryotinia fuckeliana (Botrytis cinerea); experiment: Botryotinia fuckeliana (Botrytis cinerea) liquid culture (gray mould); format: cell-based; conditions: 200 ppm in the formulation, Vogels broth, 24° C., photometric, 3-4 days after application, vs untreated control, read-out: disease control (inhibition of growth)
Method: Botryotinia fuckeliana (Botrytis cinerea) Liquid Culture (Gray Mould) Conidia of the fungus from cryogenic storage are directly mixed into nutrient broth (Vogels broth). After placing a (DMSO) solution of test compound into a microtiter plate (96-well format), the nutrient broth containing the fungal spores is added. The test plates are incubated at 24° C. and the inhibition of growth is determined photometrically 3-4 days after application.

[7] = tested on: Phaeosphaeria nodorum (Setoria nodorum); experiment: Phaeosphaeria nodorum (Septoria nodorum) / wheat / leaf disc preventative (glume blotch); format: in vivo; conditions: Parastagonospora nodorum, foliar, 200 ppm in the formulation, wheat leaf segments cv. Kanzler, 5-7 days after application, vs untreated control, read-out: disease control
Method: Phaeosphaeria nodorum (Setoria nodorum)/Wheat/Leaf Disc Preventative (Glume Blotch) Wheat leaf segments cv. Kanzler are placed on agar in a multiwell plate (24-well format) and sprayed with the formulated test compound diluted in water. The leaf disks are inoculated with a spore suspension of the fungus 2 days after application. The inoculated test leaf disks are incubated at 20° C. and 75% rh under a light regime of 12 h light/12 h darkness in a climate cabinet and the activity of a compound is assessed as percent disease control compared to untreated when an appropriate level of disease damage appears in untreated check leaf disks (5-7 days after application).

COc1ccnc(C(=O)N[C@@H](C)C(=O)OC(C)C(C)n2ncc3ccccc32)c1O (stereo partly drawn) [I.ae.001, (2-indazol-1-yl-1-methyl-propyl) (2S)-2-[(3-hydroxy-4-methoxy-pyridine-2-carbonyl)amino]propanoate]
≥ 80%: inhibition at 200 ppm [1] | pest or weed control at 200 ppm [2] | inhibition at 200 ppm [3]

COc1ccnc(C(=O)N[C@@H](C)C(=O)OC(C)C(C)n2cc(C#N)c(-c3cccc(Cl)c3Cl)c2)c1O (stereo partly drawn) [I.ag.001, [2-[3-cyano-4-(2,3-dichlorophenyl)pyrrol-1-yl]-1-methyl-propyl] (2S)-2-[(3-hydroxy-4-methoxy-pyridine-2-carbonyl)amino] propanoate]
≥ 80%: inhibition at 200 ppm [4] | inhibition at 200 ppm [5] | inhibition at 200 ppm [6] | inhibition at 200 ppm [3]

COc1ccnc(C(=O)N[C@@H](C)C(=O)OC(C)C(C)n2cc(C#N)c(-c3ccccc3Cl)c2)c1O (stereo partly drawn) [I.ah.001, [2-[3-(2-chlorophenyl)-4-cyano-pyrrol-1-yl]-1-methyl-propyl] (2S)-2-[(3-hydroxy-4-methoxy-pyridine-2-carbonyl)amino]propanoate]
≥ 80%: inhibition at 200 ppm [4] | inhibition at 200 ppm [5] | inhibition at 200 ppm [1] | inhibition at 200 ppm [6] | inhibition at 200 ppm [3]

COc1ccnc(C(=O)N[C@@H](C)C(=O)OC(C)C(C)c2sc3ccc(Cl)cc3c2C)c1O (stereo partly drawn) [I.at.001, [2-(5-chloro-3-methyl-benzothiophen-2-yl)-1-methyl-propyl] (2S)-2-[(3-hydroxy-4-methoxy-pyridine-2-carbonyl)amino]propanoate]
≥ 80%: inhibition at 200 ppm [4] | inhibition at 200 ppm [5] | inhibition at 200 ppm [1] | pest or weed control at 200 ppm [2] | inhibition at 200 ppm [3] | pest or weed control at 200 ppm [7]

COc1ccnc(C(=O)N[C@@H](C)C(=O)OC(C)C(C)n2ccc3cc(Cl)c(Cl)cc32)c1O (stereo partly drawn) [I.au.001, [2-(5,6-dichloroindol-1-yl)-1-methyl-propyl] (2S)-2-[(3-hydroxy-4-methoxy-pyridine-2-carbonyl)amino] propanoate]
≥ 80%: inhibition at 200 ppm [4] | inhibition at 200 ppm [5] | inhibition at 200 ppm [1] | inhibition at 200 ppm [6] | pest or weed control at 200 ppm [2] | inhibition at 200 ppm [3]

COc1ccnc(C(=O)N[C@@H](C)C(=O)OC(C)C(C)n2ccc3cc(F)c(Cl)cc32)c1O (stereo partly drawn) [I.av.001, [2-(6-chloro-5-fluoro-indol-1-yl)-1-methyl-propyl] (2S)-2-[(3-hydroxy-4-methoxy-pyridine-2-carbonyl)amino]propanoate]
≥ 80%: inhibition at 200 ppm [5] | inhibition at 200 ppm [1] | pest or weed control at 200 ppm [2] | inhibition at 200 ppm [3]

COc1ccnc(C(=O)N[C@@H](C)C(=O)OC(C)C(C)n2ccc3cc(F)c(Br)cc32)c1O (stereo partly drawn) [I.aw.001, [2-(6-bromo-5-fluoro-indol-1-yl)-1-methyl-propyl] (2S)-2-[(3-hydroxy-4-methoxy-pyridine-2-carbonyl)amino]propanoate]
≥ 80%: inhibition at 200 ppm [5] | inhibition at 200 ppm [1] | pest or weed control at 200 ppm [2] | inhibition at 200 ppm [3]

COc1ccnc(C(=O)N[C@@H](C)C(=O)OC(C)C(C)n2ccc3cc(F)cc(F)c32)c1O (stereo partly drawn) [I.ay.001, [2-(5,7-difluoroindol-1-yl)-1-methyl-propyl] (2S)-2-[(3-hydroxy-4-methoxy-pyridine-2-carbonyl)amino] propanoate]
≥ 80%: inhibition at 200 ppm [4] | inhibition at 200 ppm [5] | inhibition at 200 ppm [1] | pest or weed control at 200 ppm [2] | inhibition at 200 ppm [3] | pest or weed control at 200 ppm [7]

COc1ccnc(C(=O)N[C@@H](C)C(=O)OC(C)C(C)n2ccc3c(Cl)ccc(Cl)c32)c1OC(C)=O (stereo partly drawn) [I.bb.041, [2-(4,7-dichloroindol-1-yl)-1-methyl-propyl] (2S)-2-[(3-acetoxy-4-methoxy-pyridine-2-carbonyl)amino] propanoate]
≥ 80%: inhibition at 200 ppm [4] | inhibition at 200 ppm [5] | inhibition at 200 ppm [1] | pest or weed control at 200 ppm [2] | inhibition at 200 ppm [3] | pest or weed control at 200 ppm [7]

COc1ccnc(C(=O)N[C@@H](C)C(=O)OC(C)C(C)c2ccc3ccccc3n2)c1O (stereo partly drawn) [I.s.001, [1-methyl-2-(2-quinolyl)propyl] (2S)-2-[(3-hydroxy-4-methoxy-pyridine-2-carbonyl)amino]propanoate]
≥ 80%: inhibition at 200 ppm [4] | inhibition at 200 ppm [5] | inhibition at 200 ppm [1] | inhibition at 200 ppm [6] | pest or weed control at 200 ppm [2] | inhibition at 200 ppm [3]

COc1ccnc(C(=O)N[C@@H](C)C(=O)OC(C)C(C)n2ccc3ccc(F)cc32)c1O (stereo partly drawn) [I.v.001, [2-(6-fluoroindol-1-yl)-1-methyl-propyl] (2S)-2-[(3-hydroxy-4-methoxy-pyridine-2-carbonyl)amino]propanoate]
≥ 80%: inhibition at 200 ppm [4] | inhibition at 200 ppm [5] | inhibition at 200 ppm [1] | inhibition at 200 ppm [6] | pest or weed control at 200 ppm [2] | inhibition at 200 ppm [3]

COc1ccnc(C(=O)N[C@@H](C)C(=O)OC(C)C(C)n2ccc3cc(F)ccc32)c1O (stereo partly drawn) [I.w.001, [2-(5-fluoroindol-1-yl)-1-methyl-propyl] (2S)-2-[(3-hydroxy-4-methoxy-pyridine-2-carbonyl)amino]propanoate]
≥ 80%: inhibition at 200 ppm [4] | inhibition at 200 ppm [5] | inhibition at 200 ppm [1] | inhibition at 200 ppm [6] | pest or weed control at 200 ppm [2] | inhibition at 200 ppm [3]

COc1ccnc(C(=O)N[C@@H](C)C(=O)OC(C)C(C)n2ccc3ccc(Cl)cc32)c1O (stereo partly drawn) [I.x.001, [2-(6-chloroindol-1-yl)-1-methyl-propyl] (2S)-2-[(3-hydroxy-4-methoxy-pyridine-2-carbonyl)amino]propanoate]
≥ 80%: inhibition at 200 ppm [5] | inhibition at 200 ppm [1] | inhibition at 200 ppm [6] | pest or weed control at 200 ppm [2] | inhibition at 200 ppm [3]
